Laboratory results from ChEMBL document CHEMBL5223117, “Synthesis and biological evaluation of novel N, N'-diarylurea derivatives as potent antibacterial agents against MRSA” (Bioorg Med Chem Lett, 2022).
Values after ≈ are worked out from the molar mass of the structure shown. Active and inactive are the calls of the source. The rule behind the calls is not given here.

Key:
[1] = tested on: Staphylococcus epidermidis; assay: Antibacterial activity against methicillin sensitive Staphylococcus epidermidis ATCC 12228; type: functional
[2] = tested on: Staphylococcus epidermidis; assay: Antibacterial activity against methicillin sensitive Staphylococcus epidermidis 17-13; type: functional
[3] = tested on: Staphylococcus epidermidis; assay: Antibacterial activity against methicillin resistant Staphylococcus epidermidis 19-1; type: functional
[4] = tested on: Staphylococcus epidermidis; assay: Antibacterial activity against methicillin resistant Staphylococcus epidermidis 19-2; type: functional
[5] = tested on: Staphylococcus aureus; assay: Antibacterial activity against methicillin sensitive Staphylococcus aureus ATCC 29213; type: functional
[6] = tested on: Staphylococcus aureus; assay: Antibacterial activity against methicillin sensitive Staphylococcus aureus 15; type: functional
[7] = tested on: Staphylococcus aureus; assay: Antibacterial activity against methicillin resistant Staphylococcus aureus 20-11; type: functional
[8] = tested on: Staphylococcus aureus; assay: Antibacterial activity against methicillin resistant Staphylococcus aureus ATCC 43300; type: functional
[9] = tested on: Staphylococcus aureus; assay: Antibacterial activity against vancomycin intermediate and methicillin resistant Staphylococcus aureus ATCC 700698; type: functional
[10] = tested on: Staphylococcus aureus; assay: Antibacterial activity against vancomycin intermediate and methicillin resistant Staphylococcus aureus ATCC 700699; type: functional
[11] = tested on: Staphylococcus aureus; assay: Antibacterial activity against methicillin sensitive Staphylococcus aureus 20-12; type: functional
[12] = tested on: Staphylococcus aureus; assay: Antibacterial activity against methicillin sensitive Staphylococcus aureus ATCC 33591; type: functional
[13] = tested on: Staphylococcus aureus; assay: Antibacterial activity against methicillin resistant Staphylococcus aureus 18-2; type: functional
[14] = tested on: Enterococcus faecalis; assay: Antibacterial activity against Vanomycin-resistant Enterococcus faecalis ATCC 51299; type: functional
[15] = tested on: Enterococcus faecalis; assay: Antibacterial activity against Vanomycin-resistant Enterococcus faecalis ATCC 51575; type: functional
[16] = tested on: Enterococcus faecium; assay: Antibacterial activity against Vanomycin-resistant Enterococcus faecium ATCC 700221; type: functional
[17] = tested on: Enterococcus faecium; assay: Antibacterial activity against Vanomycin-resistant Enterococcus faecium ATCC 51559; type: functional
[18] = tested on: Enterococcus faecium; assay: Antibacterial activity against Vanomycin-resistant Enterococcus faecium 15-6; type: functional
[19] = Cytotoxicity against human HeLa cells by SRB assay; type: toxicity, cell-based
[20] = Cytotoxicity against human HepG2 cells by SRB assay; type: toxicity, cell-based

For `CNC(=O)c1cc(Oc2ccc(NC(=O)N3CCN(c4ccc(Cl)c(C(F)(F)F)c4)C3=O)cc2)ccn1`, the MIC [1] was “inactive”, the MIC [2] was “inactive” and the MIC [3] was “inactive”. The MIC [4] was “inactive”, the MIC [5] was “inactive” and the MIC [6] was “inactive”. The MIC [7] was “inactive”, the MIC [8] was “inactive” and the MIC [9] was “inactive”. The MIC [10] was “inactive”, the MIC [11] was “inactive” and the MIC [12] was “inactive”. The MIC [13] was “inactive”.
Work on `O=C(Nc1ccc(Cl)c(C(F)(F)F)c1)Nc1cc(F)c(F)cc1Cl` yielded an MIC [1] of 1.3 µM (≈ 0.501 µg/mL), an MIC [2] of 0.65 µM (≈ 0.25 µg/mL) and an MIC [3] of 1.3 µM (≈ 0.501 µg/mL). It also gave an MIC [4] of 0.65 µM (≈ 0.25 µg/mL), an MIC [5] of 1.3 µM (≈ 0.501 µg/mL) and an MIC [6] of 1.3 µM (≈ 0.501 µg/mL). The MIC [7] was 1.3 µM (≈ 0.501 µg/mL), the MIC [8] was 1.3 µM (≈ 0.501 µg/mL) and the MIC [9] was 1.3 µM (≈ 0.501 µg/mL). The MIC [10] was 0.65 µM (≈ 0.25 µg/mL), the MIC [11] was 1.3 µM (≈ 0.501 µg/mL) and the MIC [12] was 0.65 µM (≈ 0.25 µg/mL). The MIC [13] was 1.3 µM (≈ 0.501 µg/mL), the MIC [14] was 10.4 µM (≈ 4 µg/mL) and the MIC [15] was 10.4 µM (≈ 4 µg/mL). The MIC [16] was 5.19 µM (≈ 2 µg/mL), the MIC [17] was 5.19 µM (≈ 2 µg/mL) and the MIC [18] was 2.6 µM (≈ 1 µg/mL).
`O=C(Nc1ccc(Cl)c(C(F)(F)F)c1)Nc1cc(Cl)c(F)cc1F` gave an MIC [1] of 2.6 µM (≈ 1 µg/mL), an MIC [2] of 2.6 µM (≈ 1 µg/mL) and an MIC [3] of 2.6 µM (≈ 1 µg/mL). It also gave an MIC [4] of 1.3 µM (≈ 0.501 µg/mL), an MIC [5] of 2.6 µM (≈ 1 µg/mL) and an MIC [6] of 1.3 µM (≈ 0.501 µg/mL). For the same molecule, the MIC [7] was 2.6 µM (≈ 1 µg/mL), the MIC [8] was 2.6 µM (≈ 1 µg/mL) and the MIC [9] was 2.6 µM (≈ 1 µg/mL). It also gave an MIC [10] of 2.6 µM (≈ 1 µg/mL), an MIC [11] of 2.6 µM (≈ 1 µg/mL) and an MIC [12] of 1.3 µM (≈ 0.501 µg/mL). It also gave an MIC [13] of 2.6 µM (≈ 1 µg/mL), an MIC [14] of 20.8 µM (≈ 8 µg/mL) and an MIC [15] of 10.4 µM (≈ 4 µg/mL). The MIC [16] was 5.19 µM (≈ 2 µg/mL), the MIC [17] was 5.19 µM (≈ 2 µg/mL) and the MIC [18] was 5.19 µM (≈ 2 µg/mL).
For `O=C(Nc1ccc(OC(F)(F)F)cc1)N1CCN(c2ccc(Cl)c(C(F)(F)F)c2)C1=O`, the MIC [1] was “inactive”, the MIC [2] was “inactive” and the MIC [3] was “inactive”. The MIC [4] was “inactive”, the MIC [5] was “inactive” and the MIC [6] was “inactive”. The MIC [7] was “inactive”, the MIC [8] was “inactive” and the MIC [9] was “inactive”. The MIC [10] was “inactive”, the MIC [11] was “inactive” and the MIC [12] was “inactive”. For the same molecule, the MIC [13] was “inactive”, the IC50 [19] was 100 µM and the IC50 [20] was 100 µM.
For `O=C1N(c2ccc(O)cc2)CCN1c1ccc(Cl)c(C(F)(F)F)c1`, the MIC [1] was “inactive”, the MIC [2] was “inactive” and the MIC [3] was “inactive”. The MIC [4] was “inactive”, the MIC [5] was “inactive” and the MIC [6] was “inactive”. For the same molecule, the MIC [7] was “inactive”, the MIC [8] was “inactive” and the MIC [9] was “inactive”. The MIC [10] was “inactive”.
`O=C(Nc1ccc(C(F)(F)F)cc1)Nc1ccc(Cl)c(C(F)(F)F)c1` showed an MIC [1] of 20.9 µM (≈ 8 µg/mL), an MIC [2] of 20.9 µM (≈ 8 µg/mL) and an MIC [3] of 10.4 µM (≈ 4 µg/mL). It also gave an MIC [4] of 10.4 µM (≈ 4 µg/mL), an MIC [5] of 20.9 µM (≈ 8 µg/mL) and an MIC [6] of 10.4 µM (≈ 4 µg/mL). The MIC [7] was 20.9 µM (≈ 8 µg/mL), the MIC [8] was 20.9 µM (≈ 8 µg/mL) and the MIC [9] was 20.9 µM (≈ 8 µg/mL). It also gave an MIC [10] of 10.4 µM (≈ 4 µg/mL), an MIC [11] of 20.9 µM (≈ 8 µg/mL) and an MIC [12] of 10.4 µM (≈ 4 µg/mL). It also gave an MIC [13] of 10.4 µM (≈ 4 µg/mL), an MIC [14] of 41.8 µM (≈ 16 µg/mL) and an MIC [15] of 20.9 µM (≈ 8 µg/mL). The MIC [16] was 41.8 µM (≈ 16 µg/mL), the MIC [17] was 41.8 µM (≈ 16 µg/mL) and the MIC [18] was 20.9 µM (≈ 8 µg/mL).
For `O=C(Nc1ccc(F)cc1)Nc1ccc(Cl)c(C(F)(F)F)c1`, the MIC [1] was 6.01 µM (≈ 2 µg/mL), the MIC [2] was 6.01 µM (≈ 2 µg/mL) and the MIC [3] was 6.01 µM (≈ 2 µg/mL). For the same molecule, the MIC [4] was 6.01 µM (≈ 2 µg/mL), the MIC [5] was 12 µM (≈ 4 µg/mL) and the MIC [6] was 6.01 µM (≈ 2 µg/mL). The MIC [7] was 12 µM (≈ 4 µg/mL), the MIC [8] was 12 µM (≈ 4 µg/mL) and the MIC [9] was 12 µM (≈ 4 µg/mL). The MIC [10] was 3.01 µM (≈ 1 µg/mL), the MIC [11] was 12 µM (≈ 4 µg/mL) and the MIC [12] was 6.01 µM (≈ 2 µg/mL). It also gave an MIC [13] of 6.01 µM (≈ 2 µg/mL), an MIC [14] of 192 µM (≈ 64 µg/mL) and an MIC [15] of 192 µM (≈ 64 µg/mL). It also gave an MIC [16] of 48.1 µM (≈ 16 µg/mL), an MIC [17] of 96.2 µM (≈ 32 µg/mL) and an MIC [18] of 48.1 µM (≈ 16 µg/mL).
In the case of `CNC(=O)c1cc(Oc2ccc(N3CCN(c4ccc(Cl)c(C(F)(F)F)c4)C3=O)cc2)ccn1`, the MIC [1] is reported as “inactive”, the MIC [2] is reported as “inactive” and the MIC [3] is reported as “inactive”. The MIC [4] was “inactive”, the MIC [5] was “inactive” and the MIC [6] was “inactive”. The MIC [7] was “inactive”, the MIC [8] was “inactive” and the MIC [9] was “inactive”. For the same molecule, the MIC [10] was “inactive”.
Work on `O=C(Nc1ccc(Cl)c(C(F)(F)F)c1)Nc1cc(Cl)ccc1F` yielded an MIC [1] of 2.72 µM (≈ 0.999 µg/mL), an MIC [2] of 2.72 µM (≈ 0.999 µg/mL) and an MIC [3] of 2.72 µM (≈ 0.999 µg/mL). It also gave an MIC [4] of 2.72 µM (≈ 0.999 µg/mL), an MIC [5] of 2.72 µM (≈ 0.999 µg/mL) and an MIC [6] of 1.36 µM (≈ 0.499 µg/mL). For the same molecule, the MIC [7] was 2.72 µM (≈ 0.999 µg/mL), the MIC [8] was 2.72 µM (≈ 0.999 µg/mL) and the MIC [9] was 1.36 µM (≈ 0.499 µg/mL). The MIC [10] was 1.36 µM (≈ 0.499 µg/mL), the MIC [11] was 2.72 µM (≈ 0.999 µg/mL) and the MIC [12] was 2.72 µM (≈ 0.999 µg/mL). For the same molecule, the MIC [13] was 1.36 µM (≈ 0.499 µg/mL), the MIC [14] was 5.45 µM (≈ 2 µg/mL) and the MIC [15] was 5.45 µM (≈ 2 µg/mL). It also gave an MIC [16] of 2.72 µM (≈ 0.999 µg/mL), an MIC [17] of 2.72 µM (≈ 0.999 µg/mL) and an MIC [18] of 2.72 µM (≈ 0.999 µg/mL).
For `CNC(=O)c1cc(Oc2ccc(NC(=O)Nc3cc(C(F)(F)F)ccc3Cl)cc2)ccn1`, the MIC [1] was “inactive”, the MIC [2] was “inactive” and the MIC [3] was “inactive”. The MIC [4] was “inactive”, the MIC [5] was “inactive” and the MIC [6] was “inactive”. The MIC [7] was “inactive”, the MIC [8] was “inactive” and the MIC [9] was “inactive”. For the same molecule, the MIC [10] was “inactive”.
